Measurements from ChEMBL document CHEMBL5291721, “A preclinical secondary pharmacology resource illuminates target-adverse drug reaction associations of marketed drugs” (Nat Commun, 2023).

Columns and labels:
[1] = molecular target: T1, Endothelin receptor type B (Homo sapiens, UniProt P24530)
T1 sequence (P24530 whole entry): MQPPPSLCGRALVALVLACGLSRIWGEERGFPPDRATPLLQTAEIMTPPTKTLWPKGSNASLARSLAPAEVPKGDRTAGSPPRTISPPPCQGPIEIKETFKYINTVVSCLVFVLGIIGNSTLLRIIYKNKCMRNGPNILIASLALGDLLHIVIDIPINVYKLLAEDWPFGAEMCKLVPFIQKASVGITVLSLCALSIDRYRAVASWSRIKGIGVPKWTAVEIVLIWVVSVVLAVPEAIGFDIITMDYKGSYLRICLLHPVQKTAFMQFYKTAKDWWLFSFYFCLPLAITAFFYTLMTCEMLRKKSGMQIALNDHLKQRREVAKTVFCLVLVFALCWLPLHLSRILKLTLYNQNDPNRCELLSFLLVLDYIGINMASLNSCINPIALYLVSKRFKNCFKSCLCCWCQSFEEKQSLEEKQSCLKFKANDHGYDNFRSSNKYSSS

Progesterone receptor = molecular target: T2, Progesterone receptor (Homo sapiens, UniProt P06401)
T2 sequence (P06401 whole entry): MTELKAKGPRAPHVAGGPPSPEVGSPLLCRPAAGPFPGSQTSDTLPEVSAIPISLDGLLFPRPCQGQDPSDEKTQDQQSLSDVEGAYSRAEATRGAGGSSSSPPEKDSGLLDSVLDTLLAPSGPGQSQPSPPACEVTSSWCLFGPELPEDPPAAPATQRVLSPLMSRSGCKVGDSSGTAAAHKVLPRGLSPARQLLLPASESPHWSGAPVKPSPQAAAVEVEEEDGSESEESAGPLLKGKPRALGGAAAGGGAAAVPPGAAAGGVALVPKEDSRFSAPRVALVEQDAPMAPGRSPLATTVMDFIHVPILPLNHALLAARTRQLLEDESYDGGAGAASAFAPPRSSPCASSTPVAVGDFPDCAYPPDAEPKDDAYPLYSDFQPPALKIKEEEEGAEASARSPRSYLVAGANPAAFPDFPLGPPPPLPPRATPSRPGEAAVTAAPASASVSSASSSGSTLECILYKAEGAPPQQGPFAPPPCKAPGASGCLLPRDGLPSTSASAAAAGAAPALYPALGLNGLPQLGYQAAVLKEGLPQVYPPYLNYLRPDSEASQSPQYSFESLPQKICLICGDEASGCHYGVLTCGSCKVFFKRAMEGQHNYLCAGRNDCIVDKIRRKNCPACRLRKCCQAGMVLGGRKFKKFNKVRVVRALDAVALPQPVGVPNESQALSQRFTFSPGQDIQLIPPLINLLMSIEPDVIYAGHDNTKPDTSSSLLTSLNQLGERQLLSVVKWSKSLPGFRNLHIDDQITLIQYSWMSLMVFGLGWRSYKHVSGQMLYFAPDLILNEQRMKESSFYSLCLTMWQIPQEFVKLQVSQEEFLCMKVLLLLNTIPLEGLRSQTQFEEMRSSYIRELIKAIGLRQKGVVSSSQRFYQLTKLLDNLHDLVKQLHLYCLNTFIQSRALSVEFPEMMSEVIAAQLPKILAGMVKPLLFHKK

[2] = molecular target: T3, Alpha-1A adrenergic receptor (Homo sapiens, UniProt P35348); type: functional, cell-based
T3 sequence (P35348 whole entry): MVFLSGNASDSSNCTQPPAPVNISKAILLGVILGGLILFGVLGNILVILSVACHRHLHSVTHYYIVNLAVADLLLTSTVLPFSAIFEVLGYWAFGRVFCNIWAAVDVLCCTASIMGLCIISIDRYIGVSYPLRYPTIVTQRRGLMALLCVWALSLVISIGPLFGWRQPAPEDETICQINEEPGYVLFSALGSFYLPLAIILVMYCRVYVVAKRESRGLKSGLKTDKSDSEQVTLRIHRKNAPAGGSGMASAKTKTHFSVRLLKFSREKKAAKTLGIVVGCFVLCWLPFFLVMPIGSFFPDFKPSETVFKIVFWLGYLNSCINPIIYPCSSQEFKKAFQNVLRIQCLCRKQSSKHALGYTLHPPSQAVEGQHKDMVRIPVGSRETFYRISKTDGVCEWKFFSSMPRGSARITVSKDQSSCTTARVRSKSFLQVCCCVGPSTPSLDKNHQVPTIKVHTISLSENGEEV

[3] = molecular target: 3',5'-cyclic-AMP phosphodiesterase 4A (Homo sapiens, UniProt P27815); type: functional
[4] = molecular target: Sodium-dependent dopamine transporter (Homo sapiens, UniProt Q01959)
[5] = molecular target: Vascular endothelial growth factor receptor 2 (Homo sapiens, UniProt P35968); type: functional
[6] = molecular target: T4, Peroxisome proliferator-activated receptor gamma (Homo sapiens, UniProt P37231); type: functional
T4 sequence (P37231 whole entry): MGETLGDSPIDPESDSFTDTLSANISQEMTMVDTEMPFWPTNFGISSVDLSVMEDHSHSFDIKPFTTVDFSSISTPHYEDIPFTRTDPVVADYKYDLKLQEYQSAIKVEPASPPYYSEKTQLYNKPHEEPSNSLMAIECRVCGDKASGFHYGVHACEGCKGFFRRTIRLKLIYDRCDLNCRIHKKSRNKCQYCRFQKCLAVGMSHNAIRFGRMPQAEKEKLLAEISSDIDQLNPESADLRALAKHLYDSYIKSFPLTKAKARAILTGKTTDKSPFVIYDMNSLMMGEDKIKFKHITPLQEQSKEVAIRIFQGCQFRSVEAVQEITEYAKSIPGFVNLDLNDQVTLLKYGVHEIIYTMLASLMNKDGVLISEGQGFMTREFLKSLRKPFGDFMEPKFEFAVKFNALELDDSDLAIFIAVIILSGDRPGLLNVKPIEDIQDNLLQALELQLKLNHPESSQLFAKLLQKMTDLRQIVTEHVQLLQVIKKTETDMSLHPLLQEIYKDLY

[7] = molecular target: Gamma-aminobutyric acid receptor subunit alpha-1/alpha-2/beta-2/gamma-2 (Homo sapiens, UniProt P14867+P18507+P47869+P47870); type: functional, cell-based
[8] = molecular target: T4, Peroxisome proliferator-activated receptor gamma; type: functional; remark: listed apart in the source

Measured: AC50
Note: assay procedure not described here.

Sequence of Gamma-aminobutyric acid receptor subunit alpha-1/alpha-2/beta-2/gamma-2 (P14867 whole entry): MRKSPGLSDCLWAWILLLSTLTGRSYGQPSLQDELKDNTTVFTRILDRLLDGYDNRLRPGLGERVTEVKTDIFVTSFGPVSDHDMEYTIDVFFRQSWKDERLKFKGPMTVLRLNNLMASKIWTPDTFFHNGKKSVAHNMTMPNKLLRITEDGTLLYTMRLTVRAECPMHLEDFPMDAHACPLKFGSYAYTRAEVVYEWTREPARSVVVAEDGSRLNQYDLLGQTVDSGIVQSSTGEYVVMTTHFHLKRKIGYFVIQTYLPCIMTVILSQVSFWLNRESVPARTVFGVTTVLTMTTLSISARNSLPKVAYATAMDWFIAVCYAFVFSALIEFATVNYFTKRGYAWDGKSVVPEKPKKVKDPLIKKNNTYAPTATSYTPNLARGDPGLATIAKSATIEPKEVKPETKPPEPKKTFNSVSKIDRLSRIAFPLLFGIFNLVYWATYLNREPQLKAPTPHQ
Sequence of Gamma-aminobutyric acid receptor subunit alpha-1/alpha-2/beta-2/gamma-2 (P47870 whole entry): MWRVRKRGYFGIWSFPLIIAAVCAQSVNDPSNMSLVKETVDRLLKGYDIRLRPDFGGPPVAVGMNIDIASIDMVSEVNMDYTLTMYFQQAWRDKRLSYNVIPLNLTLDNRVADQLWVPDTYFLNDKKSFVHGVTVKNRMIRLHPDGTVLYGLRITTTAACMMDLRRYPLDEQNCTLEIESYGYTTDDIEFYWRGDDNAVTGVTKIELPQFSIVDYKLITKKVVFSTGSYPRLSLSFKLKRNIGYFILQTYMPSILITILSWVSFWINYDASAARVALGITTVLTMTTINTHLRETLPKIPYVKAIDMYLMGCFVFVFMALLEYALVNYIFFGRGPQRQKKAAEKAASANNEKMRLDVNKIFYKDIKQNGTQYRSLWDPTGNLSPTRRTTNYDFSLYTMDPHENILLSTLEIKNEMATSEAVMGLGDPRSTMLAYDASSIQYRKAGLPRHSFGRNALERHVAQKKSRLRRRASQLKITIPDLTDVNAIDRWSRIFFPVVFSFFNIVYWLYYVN
Sequence of Gamma-aminobutyric acid receptor subunit alpha-1/alpha-2/beta-2/gamma-2 (P18507 whole entry): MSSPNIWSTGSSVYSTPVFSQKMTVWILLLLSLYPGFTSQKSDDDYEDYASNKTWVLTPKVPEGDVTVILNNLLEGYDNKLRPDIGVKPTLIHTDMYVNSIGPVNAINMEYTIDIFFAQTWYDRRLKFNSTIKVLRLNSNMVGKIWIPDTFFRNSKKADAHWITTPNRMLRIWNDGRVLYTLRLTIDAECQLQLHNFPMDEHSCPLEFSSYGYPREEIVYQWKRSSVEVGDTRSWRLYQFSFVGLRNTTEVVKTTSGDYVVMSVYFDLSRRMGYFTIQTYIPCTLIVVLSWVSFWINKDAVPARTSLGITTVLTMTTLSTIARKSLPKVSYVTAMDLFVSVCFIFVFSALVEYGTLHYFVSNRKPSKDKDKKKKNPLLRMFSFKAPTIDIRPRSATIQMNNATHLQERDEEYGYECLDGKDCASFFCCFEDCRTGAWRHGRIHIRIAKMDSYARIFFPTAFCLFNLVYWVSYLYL
Sequence of Gamma-aminobutyric acid receptor subunit alpha-1/alpha-2/beta-2/gamma-2 (P47869 whole entry): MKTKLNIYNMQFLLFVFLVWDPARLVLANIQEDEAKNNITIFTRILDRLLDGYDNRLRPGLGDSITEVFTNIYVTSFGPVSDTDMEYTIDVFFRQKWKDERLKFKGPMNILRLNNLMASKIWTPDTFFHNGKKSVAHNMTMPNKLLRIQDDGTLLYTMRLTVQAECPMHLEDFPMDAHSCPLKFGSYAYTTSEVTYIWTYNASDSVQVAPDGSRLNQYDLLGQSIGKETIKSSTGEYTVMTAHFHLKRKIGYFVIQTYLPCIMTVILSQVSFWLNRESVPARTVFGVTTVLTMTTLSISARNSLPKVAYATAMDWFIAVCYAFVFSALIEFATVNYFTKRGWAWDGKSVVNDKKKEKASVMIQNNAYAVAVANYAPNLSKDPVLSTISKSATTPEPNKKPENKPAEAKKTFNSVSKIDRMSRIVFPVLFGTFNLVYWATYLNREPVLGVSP
Sequence of 3',5'-cyclic-AMP phosphodiesterase 4A (P27815 whole entry): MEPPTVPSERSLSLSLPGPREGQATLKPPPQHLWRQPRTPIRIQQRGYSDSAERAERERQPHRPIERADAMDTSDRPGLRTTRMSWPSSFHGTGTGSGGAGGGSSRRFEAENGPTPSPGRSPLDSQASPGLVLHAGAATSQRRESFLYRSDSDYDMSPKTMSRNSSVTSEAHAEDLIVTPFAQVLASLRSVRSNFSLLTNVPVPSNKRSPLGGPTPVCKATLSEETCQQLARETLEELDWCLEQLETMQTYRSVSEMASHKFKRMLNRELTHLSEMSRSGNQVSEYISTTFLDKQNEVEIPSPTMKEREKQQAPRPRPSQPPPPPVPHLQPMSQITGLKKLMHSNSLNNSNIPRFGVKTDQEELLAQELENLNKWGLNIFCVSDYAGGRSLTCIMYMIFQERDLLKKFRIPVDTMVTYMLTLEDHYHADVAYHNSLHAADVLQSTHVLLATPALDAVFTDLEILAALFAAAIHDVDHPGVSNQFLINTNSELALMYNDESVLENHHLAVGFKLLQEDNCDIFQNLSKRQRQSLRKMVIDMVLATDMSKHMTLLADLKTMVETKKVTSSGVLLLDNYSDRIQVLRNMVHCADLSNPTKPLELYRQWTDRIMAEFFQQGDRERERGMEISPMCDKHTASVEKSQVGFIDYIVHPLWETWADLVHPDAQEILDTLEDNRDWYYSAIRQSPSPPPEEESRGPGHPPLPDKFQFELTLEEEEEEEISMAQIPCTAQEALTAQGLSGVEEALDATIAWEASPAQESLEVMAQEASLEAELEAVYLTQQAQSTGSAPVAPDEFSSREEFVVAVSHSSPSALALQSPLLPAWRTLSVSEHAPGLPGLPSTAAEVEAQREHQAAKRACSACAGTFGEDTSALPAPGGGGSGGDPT
Sequence of Vascular endothelial growth factor receptor 2 (P35968 whole entry): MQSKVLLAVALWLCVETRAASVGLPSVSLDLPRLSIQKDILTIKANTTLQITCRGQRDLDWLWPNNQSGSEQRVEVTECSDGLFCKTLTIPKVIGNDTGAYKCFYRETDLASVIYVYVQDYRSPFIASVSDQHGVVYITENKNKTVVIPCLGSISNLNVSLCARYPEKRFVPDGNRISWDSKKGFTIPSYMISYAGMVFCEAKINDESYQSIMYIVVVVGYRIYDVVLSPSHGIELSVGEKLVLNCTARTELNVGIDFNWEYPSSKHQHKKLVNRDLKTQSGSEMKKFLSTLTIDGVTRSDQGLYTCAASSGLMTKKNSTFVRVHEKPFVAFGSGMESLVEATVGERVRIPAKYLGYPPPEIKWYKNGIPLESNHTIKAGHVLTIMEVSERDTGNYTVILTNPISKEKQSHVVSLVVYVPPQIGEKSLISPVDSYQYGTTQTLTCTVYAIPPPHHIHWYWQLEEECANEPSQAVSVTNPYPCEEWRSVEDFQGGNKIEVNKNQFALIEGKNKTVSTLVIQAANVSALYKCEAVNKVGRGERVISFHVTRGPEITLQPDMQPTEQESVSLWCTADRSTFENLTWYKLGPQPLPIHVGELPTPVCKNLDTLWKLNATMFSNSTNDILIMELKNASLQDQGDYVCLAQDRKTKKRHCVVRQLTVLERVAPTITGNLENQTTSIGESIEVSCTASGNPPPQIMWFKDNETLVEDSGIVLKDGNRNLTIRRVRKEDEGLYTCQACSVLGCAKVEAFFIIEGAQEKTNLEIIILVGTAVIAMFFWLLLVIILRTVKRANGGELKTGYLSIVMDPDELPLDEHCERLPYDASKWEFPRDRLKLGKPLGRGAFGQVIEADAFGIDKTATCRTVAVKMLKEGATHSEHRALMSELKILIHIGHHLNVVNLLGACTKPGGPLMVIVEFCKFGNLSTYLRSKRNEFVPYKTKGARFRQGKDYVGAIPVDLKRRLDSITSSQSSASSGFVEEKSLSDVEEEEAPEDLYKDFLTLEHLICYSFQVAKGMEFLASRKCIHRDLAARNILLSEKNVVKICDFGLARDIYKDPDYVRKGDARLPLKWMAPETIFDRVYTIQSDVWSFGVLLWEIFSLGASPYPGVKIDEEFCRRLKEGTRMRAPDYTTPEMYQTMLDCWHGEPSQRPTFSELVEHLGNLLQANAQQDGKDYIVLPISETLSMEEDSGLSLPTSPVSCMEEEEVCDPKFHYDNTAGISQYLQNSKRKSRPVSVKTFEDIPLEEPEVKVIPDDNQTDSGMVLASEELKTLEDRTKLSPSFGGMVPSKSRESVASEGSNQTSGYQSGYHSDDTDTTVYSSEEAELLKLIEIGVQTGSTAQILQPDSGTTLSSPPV
Sequence of Sodium-dependent dopamine transporter (Q01959 whole entry): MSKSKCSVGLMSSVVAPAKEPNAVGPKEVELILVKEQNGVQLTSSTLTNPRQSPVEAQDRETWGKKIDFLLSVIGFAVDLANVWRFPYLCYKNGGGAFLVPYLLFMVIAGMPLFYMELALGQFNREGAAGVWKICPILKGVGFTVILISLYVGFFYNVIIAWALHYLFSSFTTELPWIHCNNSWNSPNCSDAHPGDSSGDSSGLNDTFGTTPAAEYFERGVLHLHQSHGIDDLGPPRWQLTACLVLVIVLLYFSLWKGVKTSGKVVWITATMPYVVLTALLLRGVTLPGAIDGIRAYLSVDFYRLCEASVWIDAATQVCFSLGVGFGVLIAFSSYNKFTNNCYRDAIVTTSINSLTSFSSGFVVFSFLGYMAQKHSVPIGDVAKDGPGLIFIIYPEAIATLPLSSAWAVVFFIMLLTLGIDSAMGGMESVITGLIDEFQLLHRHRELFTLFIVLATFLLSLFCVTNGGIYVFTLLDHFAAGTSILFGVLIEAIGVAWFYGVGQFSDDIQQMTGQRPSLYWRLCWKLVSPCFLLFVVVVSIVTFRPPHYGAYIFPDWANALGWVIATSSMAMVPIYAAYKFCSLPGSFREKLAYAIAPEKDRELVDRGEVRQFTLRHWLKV

Cn1c(=O)cc(N2CCC[C@@H](N)C2)n(Cc2ccccc2C#N)c1=O [ALOGLIPTIN]
> 30 µM: [1]

Nc1c2ccccc2nc2ccccc12 [AMINACRINE]
> 30 µM: Progesterone receptor | [2] | [3] | [4] | [5]

CCN1CCCC1CNC(=O)c1cc(S(=O)(=O)CC)c(N)cc1OC (stereo not drawn) [AMISULPRIDE]
> 30 µM: [6] | [7] | [8]

Oc1ccc2c(c1)[C@@]13CCCC[C@@]1(O)[C@@H](C2)N(CC1CCC1)CC3 [BUTORPHANOL]
> 30 µM: [6] | [7] | [8]

CC(=O)OCC(=O)[C@@]1(O)[C@H](C)C[C@H]2[C@@H]3CCC4=CC(=O)C=C[C@]4(C)[C@@]3(F)[C@@H](O)C[C@@]21C [DEXAMETHASONE ACETATE]
> 30 µM: [1]

O=C(O)CCCCC1CCSS1 (stereo not drawn) [LIPOIC ACID, ALPHA]
> 30 µM: Progesterone receptor | [2] | [3] | [4] | [5]
